Results reported in patent US10370343B2, “[6,6] Fused bicyclic HDAC8 inhibitors” (FORMA Therapeutics, Inc., priority 2015, dated 2019).

Target: T1, Recombinant N-terminal GST tag full-length human HDAC8 (Homo sapiens, UniProt Q9BY41)
T1 construct: Recombinant N-terminal GST tag full-length human HDAC8; purchased SignalChem H90-30G-1000; host or cells: baculovirus in Sf9 insect cells
T1 sequence (Q9BY41 1-377): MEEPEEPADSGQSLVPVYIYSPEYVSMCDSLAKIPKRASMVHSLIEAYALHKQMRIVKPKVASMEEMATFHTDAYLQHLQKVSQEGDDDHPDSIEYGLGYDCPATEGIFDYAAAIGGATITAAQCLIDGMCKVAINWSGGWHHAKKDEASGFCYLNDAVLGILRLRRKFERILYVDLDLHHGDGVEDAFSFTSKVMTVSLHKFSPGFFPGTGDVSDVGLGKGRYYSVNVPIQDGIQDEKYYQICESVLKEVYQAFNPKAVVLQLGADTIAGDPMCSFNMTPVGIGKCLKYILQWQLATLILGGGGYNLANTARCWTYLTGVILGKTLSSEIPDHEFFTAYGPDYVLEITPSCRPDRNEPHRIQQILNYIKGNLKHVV
Assay: HDAC8 probe binding assay, time resolved fluorescence (TRF) format
Conditions: compounds grouped by IC50 range (Table 2)
How it was run: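 IC50 values come from four-parameter logistic fits of percent inhibition, scaled between DMSO (high) and no-enzyme (low) controls. Time-resolved fluorescence (ex 340, em 485/535 nm) was read after 16 h at room temperature. Enzyme was Sf9-expressed full-length human HDAC8 with an N-terminal GST tag, in a probe-binding format.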

Structure (SMILES)	IC50 [nM]
O=C(NO)c1ccc2c(c1)N(Cc1nc3ccc(C(F)(F)F)nc3s1)C(=O)CO2 [Compound I-212, N-hydroxy-3-oxo-4-((5-(trifluoromethyl)thiazolo [5,4-b]pyridin-2-yl)methyl)-3,4-dihydro-2H-benzo[b][1,4]oxazine-6-carboxamide]	25 to 100
O=C(NO)c1ccc2c(c1)N(Cc1ccc(C(=O)N3CCOCC3)cc1)C(=O)CO2 [Compound I-190, N-hydroxy-4-(4-(morpholine-4-carbonyl)benzyl)-3-oxo-3,4-dihydro-2H-benzo[b][1,4]oxazine-6-carboxamide]	25 to 100
Cc1ccn2cc(CN3C(=O)COc4ccc(C(=O)NO)cc43)nc2c1 [Compound I-364, N-hydroxy-4-((7-methylimidazo[1,2-a]pyridin-2-yl)methyl)-3-oxo-3,4-dihydro-2H-benzo[b][1,4]oxazine-6-carboxamide]	25 to 100
CC1(C)Oc2ccc(C(=O)NO)cc2N(C/C=C/c2ccccc2)C1=O [Compound I-318, 4-cinnamyl-N-hydroxy-2,2-dimethyl-3-oxo-3,4-dihydro-2H-benzo[b][1,4]oxazine-6-carboxamide]	≤ 25
CC1(C)Oc2ccc(C(=O)NO)cc2N(Cc2ccc(Cl)c(Cl)c2)C1=O [Compound I-312, 4-(3,4-dichlorobenzyl)-N-hydroxy-2,2-dimethyl-3-oxo-3,4-dihydro-2H-benzo[b][1,4]oxazine-6-carboxamide]	25 to 100
O=C(NO)c1ccc2c(c1)N(Cc1ccc(Cl)cc1F)C(=O)CO2 [Compound I-344, 4-(4-chloro-2-fluorobenzyl)-N-hydroxy-3-oxo-3,4-dihydro-2H-benzo[b][1,4]oxazine-6-carboxamide]	≤ 25
CC(C)Oc1ccc(CN2C(=O)COc3ccc(C(=O)NO)cc32)cc1 [Compound I-330, N-hydroxy-4-(4-isopropoxybenzyl)-3-oxo-3,4-dihydro-2H-benzo[b][1,4]oxazine-6-carboxamide]	≤ 25
O=C(NO)c1ccc2c(c1)N(Cc1nc3cc(Cl)cnc3s1)C(=O)CO2 [Compound I-209, 4-((6-chlorothiazolo[5,4-b]pyridin-2-yl)methyl)-N-hydroxy-3-oxo-3,4-dihydro-2H-benzo[b][1,4]oxazine-6-carboxamide]	≤ 25
CN(C)S(=O)(=O)c1ccc(CN2C(=O)COc3ccc(C(=O)NO)cc32)cc1 [Compound I-189, 4-(4-(N,N-dimethylsulfamoyl)benzyl)-N-hydroxy-3-oxo-3,4-dihydro-2H-benzo[b][1,4]oxazine-6-carboxamide]	≤ 25
O=C(NO)c1ccc2c(c1)N(Cc1ccc(-n3cccn3)cc1)C(=O)OC2 [Compound I-166, 1-(4-(1H-pyrazol-1-yl)benzyl)-N-hydroxy-2-oxo-1,4-dihydro-2H-benzo[d][1,3]oxazine-7-carboxamide]	≤ 25
O=C(NO)c1ccc2c(c1)N(Cc1ccc(C(=O)N3CCCC3)cc1)C(=O)CO2 [Compound I-192, N-hydroxy-3-oxo-4-(4-(pyrrolidine-1-carbonyl)benzyl)-3,4-dihydro-2H-benzo[b][1,4]oxazine-6-carboxamide]	25 to 100
CC1(C)Oc2ccc(C(=O)NO)cc2N(Cc2cccc(OC(F)(F)F)c2)C1=O [Compound I-319, N-hydroxy-2,2-dimethyl-3-oxo-4-(3-(trifluoromethoxy)benzyl)-3,4-dihydro-2H-benzo[b][1,4]oxazine-6-carboxamide]	25 to 100
Cc1ccc2nc(CN3C(=O)COc4ccc(C(=O)NO)cc43)sc2n1 [Compound I-210, N-hydroxy-4-((5-methylthiazolo[5,4-b]pyridin-2-yl)methyl)-3-oxo-3,4-dihydro-2H-benzo[b][1,4]oxazine-6-carboxamide]	≤ 25
O=C(NO)c1ccc2c(c1)N(Cc1nc3ccccc3s1)C(=O)CO2 [Compound I-289, 4-(benzo[d]thiazol-2-ylmethyl)-N-hydroxy-3-oxo-3,4-dihydro-2H-benzo[b][1,4]oxazine-6-carboxamide]	≤ 25
O=C(NO)c1ccc2c(c1)N(Cc1ccc(Cl)c(F)c1)C(=O)CO2 [Compound I-346, 4-(4-chloro-3-fluorobenzyl)-N-hydroxy-3-oxo-3,4-dihydro-2H-benzo[b][1,4]oxazine-6-carboxamide]	≤ 25
O=C(NO)c1ccc2c(c1)N(Cc1ccn3nccc3c1)C(=O)CO2 [Compound I-339, N-hydroxy-3-oxo-4-(pyrazolo[1,5-a]pyridin-5-ylmethyl)-3,4-dihydro-2H-benzo[b][1,4]oxazine-6-carboxamide]	≤ 25
NC(=O)c1ccc(CN2C(=O)COc3ccc(C(=O)NO)cc32)cc1 [Compound I-362, 4-(4-carbamoylbenzyl)-N-hydroxy-3-oxo-3,4-dihydro-2H-benzo[b][1,4]oxazine-6-carboxamide]	≤ 25
CNC(=O)C1CN(Cc2ccc(OC)cc2)c2cc(C(=O)NO)ccc2O1 (centres unmarked) [Compound I-170, N^6-hydroxy-4-(4-methoxybenzyl)-N^2-methyl-3,4-dihydro-2H, benzo[b][1,4]oxazine-2,6-dicarboxamide]	25 to 100
O=C(NO)c1ccc2c(c1)N(Cc1ccc(F)c(Cl)c1)C(=O)CO2 [Compound I-351, 4-(3-chloro-4-fluorobenzyl)-N-hydroxy-3-oxo-3,4-dihydro-2H-benzo[b][1,4]oxazine-6-carboxamide]	≤ 25
O=C(NO)c1ccc2c(c1)N(Cc1cnc(-c3ccccc3)o1)C(=O)CO2 [Compound I-178, N-hydroxy-3-oxo-4-((2-phenyloxazol-5-yl)methyl)-3,4-dihydro-2H-benzo[b][1,4]oxazine-6-carboxamide]	≤ 25
O=C(NO)c1ccc2c(c1)N(Cc1cnc3ccccc3c1)C(=O)CO2 [Compound I-333, N-hydroxy-3-oxo-4-(quinoIin-3-ylmethyl)-3,4-dihydro-2H-benzo[b][1,4]oxazine-6-carboxamide]	≤ 25
CC1(C)Oc2ccc(C(=O)NO)cc2N(Cc2nc(-c3ccccc3)sc2Cc2ccccc2)C1=O [Compound I-309, 4-((5-benzyl-2-phenylthiazol-4-yl)methyl)-N-hydroxy-2,2-dimethyl-3-oxo-3,4-dihydro-2H-benzo[b][1,4]oxazine-6-carboxamide]	> 1000
COc1ccc(Cl)c(CN2C(=O)COc3ccc(C(=O)NO)cc32)c1 [Compound I-347, 4-(2-chloro-5-methoxybenzyl)-N-hydroxy-3-oxo-3,4-dihydro-2H-benzo[b][1,4]oxazine-6-carboxamide]	≤ 25
O=C(NO)c1ccc2c(c1)N(Cc1nc3cccnc3s1)C(=O)CO2 [Compound I-359, N-hydroxy-3-oxo-4-(thiazolo[5,4-b]pyridin-2-ylmethyl)-3,4-dihydro-2H-benzo[b][1,4]oxazine-6-carboxamide]	≤ 25

Target: T2, Full length human recombinant HDAC8 protein (Homo sapiens, UniProt Q9BY41)
T2 construct: Full length human recombinant HDAC8 protein was expressed in baculoviral system; made in house
T2 sequence (Q9BY41 1-377): T1 sequence (Q9BY41 1-377)
Assay: In vitro histone deacetylase assay: enzymatic HDAC8 electrophoretic mobility shift assay
Format: biochemical
Conditions: electrophoretic mobility shift assay; enzyme 1 nM; 2 μM fluorescently labeled peptide substrate RHKK(Ac)-NH2; 25° C.; 12 concentrations; read-out: HDAC8 IC50
Procedure: The enzymatic HDAC8 assay was performed using electrophoretic mobility shift assay. Full length human recombinant HDAC8 protein was expressed in baculoviral system and purified by affinity chromatography. The enzymatic reactions were assembled in 384 well plates in a total volume of 25 μL in a reaction buffer composing: 100 mM HEPES, pH7.5, 25 mM KCl, 0.1% bovine serum albumin, 0.01% Triton X-100, 1% DMSO (from compounds) 2 μM of the fluorescently labeled peptide substrate and enzyme. The enzyme was added at a final concentration of 1 nM. The peptide substrate RHKK(Ac)—NH2 was used. The compounds were tested at 12 concentrations spaced by 3× dilution intervals. Negative control samples (0%-inhibition in the absence of inhibitor) and positive control samples (100%-inhibition) were assembled in replicates of four in each assay plate. The reactions were incubated at 25° C. and quenched by the addition of 45 μL of termination buffer (100 mM HEPES, pH 7.5, 0.01% Triton X-100, 0.05% SDS).
The terminated assay plates were analyzed on LabChip® 3000 microfluidic electrophoresis instrument (Perkin Elmer/Caliper Life Sciences). The fluorescence intensity of the electrophoretically separated de-acetylated product and substrate peptide was measured. Activity in each sample was determined as the product to sum ratio (PSR): P/(S+P), where P is the peak height of the product peptide and S is the peak height of the substrate peptide. Percent inhibition (Pinh) is determined using the following equation: Pinh=(PSR0%−PSRinh)/(PSR0%−PSR100%)*100, where PSRinh is the product sum ratio in the presence of inhibitor, PSR0% is the average product sum ration in the absence of inhibitor and PSR100% is the average product sum ratio in 100%-inhibition control samples. The IC50 values of inhibitors were determined by fitting the %-inhibition curves with 4 parameter dose-response model using XLfit 4 software.

Structure (SMILES)	IC50 [nM]
COCCn1c(N2CCCc3ccc(C(=O)NO)cc32)nc2ccccc21 [Compound I-110, N-hydroxy-1-(1-(2-methoxyethyl)-1H-benzo[d]imidazol-2-yl)-1,2,3,4-tetrahydroquinoline-7-carboxamide]	100 to 1000
O=C(NO)c1ccc2c(c1)N(Cc1ccccc1C(F)(F)F)C(=O)CO2 [Compound I-65, N-hydroxy-3-oxo-4-(2-(trifluoromethyl)benzyl)-3,4-dihydro-2H-benzo[b][1,4]oxazine-6-carboxamide]	100 to 1000
COc1ccc(CN2C(=O)[C@@H](C)Oc3ccc(C(=O)NO)cc32)cc1 (single isomer, unassigned) [Compound I-162]	25 to 100
O=C(NO)c1ccc2c(c1)N(Cc1ccccc1SC(F)(F)F)C(=O)CO2 [Compound I-262, N-hydroxy-3-oxo-4-(2-((trifluoromethyl)thio)benzyl)-3,4-dihydro-2H-benzo[b][1,4]oxazine-6-carboxamide]	25 to 100
CCCc1nc(C)sc1CN1C(=O)COc2ccc(C(=O)NO)cc21 [Compound I-283, N-hydroxy-4-((2-methyl-4-propylthiazol-5-yl)methyl)-3-oxo-3,4-dihydro-2H-benzo[b][1,4]oxazine-6-carboxamide]	100 to 1000
